According to patent US20040110802A1, “Antibacterial benzoic acid derivatives” (priority 2002, published 2004):

system: SAUR 9218; assay: MIC Test Method, standard agar dilution; assay type: cell-based; conditions: agar dilution, Mueller Hinton agar, incubated overnight at 35° C.; lowest concentration that inhibits visible growth; read-out: SAUR 9218 MIC
Outline: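 Agar dilution in Mueller Hinton agar with serial 2-fold compound dilutions. Staphylococcus aureus strain 9218 spotted at approximately 10^4 to 10^5 cells per spot, incubated overnight at 35 °C; MIC (μg/ml) is the lowest concentration preventing visible growth.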

MIC, 16 µg/mL:
N#Cc1ccc(NC(=O)c2ccc(Cl)nc2)c(C(=O)O)c1
N#Cc1ccc(NC(=O)c2ccc3c(c2)OCO3)c(C(=O)O)c1
N#Cc1ccc(NC(=O)c2cncc(-c3cnccn3)c2)c(C(=O)O)c1
N#Cc1ccc(NC(=O)c2cc(-c3ccccc3)nc3ccccc23)c(C(=O)O)c1
Cc1sc(C(=O)Nc2ccc(C#N)cc2C(=O)O)cc1S(=O)(=O)N1CC(C)OC(C)C1 (stereo not drawn)
CC(=O)c1ccc(N2CCN(S(=O)(=O)c3cc(C(=O)Nc4ccc(C#N)cc4C(=O)O)sc3C)CC2)cc1
Cc1sc(C(=O)Nc2ccc(C#N)cc2C(=O)O)cc1S(=O)(=O)N(CCO)Cc1ccccc1
Cc1sc(C(=O)Nc2ccc(C#N)cc2C(=O)O)cc1S(=O)(=O)N1CC(C)CC(C)C1 (stereo not drawn)
Cc1sc(C(=O)Nc2ccc(C#N)cc2C(=O)O)cc1S(=O)(=O)N1CCN(c2ccc(F)cc2)CC1
CN(c1ccc(Cl)cc1)S(=O)(=O)c1ccc(C(=O)Nc2ccc(Br)cc2C(=O)O)o1
O=C(Nc1ccc(Br)cc1C(=O)O)c1cccc(SCc2ccccc2)n1

MIC, 64 µg/mL:
N#Cc1ccc(NC(=O)c2cncc(C#CCO)c2)c(C(=O)O)c1
CCN(CC)C(=O)C1CCCN(S(=O)(=O)c2cc(C(=O)Nc3ccc(C#N)cc3C(=O)O)sc2C)C1 (stereo not drawn)
Cc1sc(C(=O)Nc2ccc(C#N)cc2C(=O)O)cc1S(=O)(=O)N1CCN(c2ncccn2)CC1
Cc1sc(C(=O)Nc2ccc(C#N)cc2C(=O)O)cc1S(=O)(=O)N(CCC#N)Cc1ccccc1
COCC1CCCN1S(=O)(=O)c1cc(C(=O)Nc2ccc(C#N)cc2C(=O)O)sc1C (stereo not drawn)

MIC, 0.5 µg/mL:
CCSc1ccc(C(=O)Nc2ccc(C#N)cc2C(=O)O)cn1.Cl
CCCSc1ccc(C(=O)Nc2ccc(C#N)cc2C(=O)O)cn1.Cl
N#Cc1ccc(NC(=O)c2ccc(SC3CCCC3)nc2)c(C(=O)O)c1
COCC(O)COc1cccc2cc(C(=O)Nc3ccc(C#N)cc3C(=O)O)n(C)c12 (stereo not drawn)
N#Cc1ccc(NC(=O)c2noc3ccc(-c4ccccc4CO)cc23)c(C(=O)O)c1

MIC, 8 µg/mL:
O=C(Nc1ccc(Br)cc1C(=O)O)c1ccc2c(c1)C(=O)N(CC1CCCO1)C2=O (stereo not drawn)
N#Cc1ccc(NC(=O)c2ccc3ccccc3n2)c(C(=O)O)c1
N#Cc1ccc(NC(=O)c2cncc(Br)c2)c(C(=O)O)c1
COc1ccc(C(=O)Nc2ccc(C#N)cc2C(=O)O)cn1
Cn1cccc1-c1cncc(C(=O)Nc2ccc(C#N)cc2C(=O)O)c1
Cc1ccccc1-c1cncc(C(=O)Nc2ccc(C#N)cc2C(=O)O)c1
N#Cc1ccc(NC(=O)c2cncc(Oc3ccccc3)c2)c(C(=O)O)c1
CCOc1nc(SCc2ccccc2)ncc1C(=O)Nc1ccc(C#N)cc1C(=O)O
Cc1sc(C(=O)Nc2ccc(C#N)cc2C(=O)O)cc1S(=O)(=O)N(C)C1CCCCC1
C=CCN(C1CCCC1)S(=O)(=O)c1cc(C(=O)Nc2ccc(C#N)cc2C(=O)O)sc1C
Cc1sc(C(=O)Nc2ccc(C#N)cc2C(=O)O)cc1S(=O)(=O)N1CCCCCC1
CCCCN(CC)S(=O)(=O)c1cc(C(=O)Nc2ccc(C#N)cc2C(=O)O)sc1C
Cc1sc(C(=O)Nc2ccc(C#N)cc2C(=O)O)cc1S(=O)(=O)N1CCC(C#N)(c2ccccc2)CC1
Cc1sc(C(=O)Nc2ccc(C#N)cc2C(=O)O)cc1S(=O)(=O)N1CCN(c2ccccc2)CC1
Cc1sc(C(=O)Nc2ccc(C#N)cc2C(=O)O)cc1S(=O)(=O)N1CCCC1C (stereo not drawn)
CCCN(CCC)S(=O)(=O)c1ccc(C(=O)Nc2ccc(Br)cc2C(=O)O)cn1
CN(c1ccc(Cl)cc1)S(=O)(=O)c1csc(C(=O)Nc2ccc(Br)cc2C(=O)O)c1
Cc1c(S(=O)(=O)N(C)c2ccc(Cl)cc2)csc1C(=O)Nc1ccc(Br)cc1C(=O)O
CN(c1ccc(Cl)cc1)S(=O)(=O)c1cc(C(=O)Nc2ccc(Br)cc2C(=O)O)c[n+]([O-])c1

MIC, 32 µg/mL:
N#Cc1ccc(NC(=O)c2cccc(Br)n2)c(C(=O)O)c1
N#Cc1ccc(NC(=O)c2ccccn2)c(C(=O)O)c1
CC(C)(C)c1ccc(-c2cncc(C(=O)Nc3ccc(C#N)cc3C(=O)O)c2)cc1
Cc1sc(C(=O)Nc2ccc(C#N)cc2C(=O)O)cc1S(=O)(=O)N(CC(C)C)CC(C)C
Cc1sc(C(=O)Nc2ccc(C#N)cc2C(=O)O)cc1S(=O)(=O)N1CCN(c2cccc(C(F)(F)F)c2)CC1
Cc1sc(C(=O)Nc2ccc(C#N)cc2C(=O)O)cc1S(=O)(=O)N1CCOCC1
Cc1sc(C(=O)Nc2ccc(C#N)cc2C(=O)O)cc1S(=O)(=O)N(Cc1ccccc1)C(C)C

MIC, 0.125 µg/mL:
N#Cc1ccc(NC(=O)c2nnc(SCc3ccccc3)s2)c(C(=O)O)c1
CS(=O)(=O)N(c1ccc2onc(C(=O)Nc3ccc(C#N)cc3C(=O)O)c2c1)S(C)(=O)=O
N#Cc1ccc(NC(=O)c2noc3cc(-c4cccc(CO)c4)ccc23)c(C(=O)O)c1
CS(=O)(=O)Nc1ccc(-c2cc3onc(C(=O)Nc4ccc(C#N)cc4C(=O)O)c3cc2NS(C)(=O)=O)c(C(F)(F)F)c1

MIC, 1 µg/mL:
Cc1ccsc1C(=O)Nc1ccc(C#N)cc1C(=O)O
Cc1nc(S(=O)(=O)Nc2cccc3cc(C(=O)Nc4ccc(C#N)cc4C(=O)O)n(C)c23)cn1C
O=C(O)c1cc(Br)ccc1NC(=O)c1nsc2ccccc12
Cn1c(C(=O)Nc2ccc(C#N)cc2C(=O)O)cc2cccc(NC(=O)Cc3ccncc3)c21.O=C(O)C(F)(F)F
CN(c1ccc(Cl)cc1)S(=O)(=O)c1cncc(C(=O)Nc2ccc(Br)cc2C(=O)O)c1

MIC, 128 µg/mL:
N#Cc1ccc(NC(=O)c2cnccn2)c(C(=O)O)c1
Cc1sc(C(=O)Nc2ccc(C#N)cc2C(=O)O)cc1S(=O)(=O)N1CCCC1CN1CCCC1 (stereo not drawn)
CCN(CC)CCN(CC)S(=O)(=O)c1cc(C(=O)Nc2ccc(C#N)cc2C(=O)O)sc1C

MIC, 2 µg/mL:
CC(C)CN1C(=O)c2ccc(C(=O)Nc3ccc(Br)cc3C(=O)O)cc2C1=O
N#Cc1ccc(NC(=O)c2cncc(-c3ccccc3C(F)(F)F)c2)c(C(=O)O)c1
N#Cc1ccc(NC(=O)c2cc3ccccc3[nH]2)c(C(=O)O)c1
N#Cc1ccc(NC(=O)c2cc3ccccc3o2)c(C(=O)O)c1
N#Cc1ccc(NC(=O)c2ccc(S(=O)(=O)N3CCc4cc(Cl)ccc43)nc2)c(C(=O)O)c1
Cc1sc(C(=O)Nc2ccc(C#N)cc2C(=O)O)cc1S(=O)(=O)N(C)CC(O)c1ccccc1 (stereo not drawn)
CN(c1ccc(Cl)cc1)S(=O)(=O)c1ccc(C(=O)Nc2ccc(Br)cc2C(=O)O)s1
Cc1sc(C(=O)Nc2ccc(Br)cc2C(=O)O)cc1S(=O)(=O)N(C)c1ccc(Cl)cc1
O=C(Nc1ccc(Br)cc1C(=O)O)c1ccnc(SCc2ccccc2)c1
O=C(Nc1ccc(Br)cc1C(=O)O)c1cc(SCc2ccccc2)ccn1

MIC, 0.25 µg/mL:
Cl.N#Cc1ccc(NC(=O)c2ccc(SCc3ccccc3)nc2)c(C(=O)O)c1
N#Cc1ccc(NC(=O)c2ccc3c(c2)S(=O)(=O)N(c2ccc(Cl)cc2)CC3)c(C(=O)O)c1
CCCCSc1ccc(C(=O)Nc2ccc(C#N)cc2C(=O)O)cn1
CC(Sc1ccc(C(=O)Nc2ccc(C#N)cc2C(=O)O)cn1)c1ccccc1 (stereo not drawn)
CC(C)Sc1ccc(C(=O)Nc2ccc(C#N)cc2C(=O)O)cn1
CCOCC(O)COc1cccc2cc(C(=O)Nc3ccc(C#N)cc3C(=O)O)n(C)c12 (stereo not drawn)
Cn1c(C(=O)Nc2ccc(C#N)cc2C(=O)O)cc2cccc(OCC(O)CCl)c21 (stereo not drawn)

MIC, 4 µg/mL:
CSc1ccc(C(=O)Nc2ccc(C#N)cc2C(=O)O)cn1.Cl
CC1=C(C(=O)Nc2ccc(C#N)cc2C(=O)O)Cc2ccccc21
N#Cc1ccc(NC(=O)c2cncc(-c3ccco3)c2)c(C(=O)O)c1
Cc1sc(C(=O)Nc2ccc(C#N)cc2C(=O)O)cc1S(=O)(=O)N1CCN(c2ccc([N+](=O)[O-])cc2)CC1

MIC, > 128 µg/mL:
Cc1c(S(=O)(=O)NC2CCN(Cc3ccccc3)CC2)csc1C(=O)Nc1ccc(Br)cc1C(=O)O
Cc1sc(C(=O)Nc2ccc(Br)cc2C(=O)O)cc1S(=O)(=O)NC1CCN(Cc2ccccc2)CC1
CCCCN(CCCC)CCCNS(=O)(=O)c1cc(C(=O)Nc2ccc(Br)cc2C(=O)O)cs1
CCCCN(CCCC)CCCNS(=O)(=O)c1csc(C(=O)Nc2ccc(Br)cc2C(=O)O)c1C
CCCCN(CCCC)CCCNS(=O)(=O)c1cc(C(=O)Nc2ccc(Br)cc2C(=O)O)sc1C
CS(=O)(=O)c1ncc(Cl)c(C(=O)Nc2ccc(Cl)cc2C(=O)O)n1
CSc1ncc(Cl)c(C(=O)Nc2ccc(Br)cc2C(=O)O)n1
CS(=O)(=O)c1ncc(N2CCOCC2)c(C(=O)Nc2ccc(Br)cc2C(=O)O)n1
N#Cc1ccc(NC(=O)c2ccoc2)c(C(=O)O)c1
Cc1cc(C(=O)Nc2ccc(C#N)cc2C(=O)O)c(C)o1
N#Cc1ccc(NC(=O)c2ccsc2)c(C(=O)O)c1
COc1ccc(C(=O)Nc2ccc(C#N)cc2C(=O)O)c(OC)n1
N#Cc1ccc(NC(=O)c2cncc(-c3ccccn3)c2)c(C(=O)O)c1
N#Cc1ccc(NC(=O)c2cncc(-c3ccc(Cl)cc3)c2)c(C(=O)O)c1
N#Cc1ccc(NC(=O)c2csc(-c3cccnc3)n2)c(C(=O)O)c1
N#Cc1ccc(NC(=O)c2ccco2)c(C(=O)O)c1
O=C(Nc1ccc(Br)cc1C(=O)O)C1=NS(=O)(=O)c2ccccc21
O=C(Nc1ccc(Br)cc1C(=O)O)c1c[nH]c(SCc2ccccc2)n1
O=C(Nc1ccc(Br)cc1C(=O)O)c1cccs1
